Source: ChEMBL document CHEMBL1152465, “Comparative evaluation of the inhibitory activities of a series of pyrimidinedione congeners that inhibit human immunodeficiency virus types 1 and 2” (Antimicrob Agents Chemother, 2008)
Calls of active or inactive are those of the source.

Key:
[1] = tested on: Human immunodeficiency virus 2; assay: Inhibition of HIV2 reverse transcriptase assessed as 32P-labeled GMP incorporation into nascent DNA strand at highest concentration
[2] = molecular target: Human immunodeficiency virus type 1 reverse transcriptase (Human immunodeficiency virus 1, UniProt Q72547); assay: Inhibition of wild type HIV1 reverse transcriptase assessed as 32P-labeled GMP incorporation into nascent DNA strand
[3] = Cytotoxicity against human HeLa cells expressing CD4-LTR by XTT assay; format: cell-based; details: read-out: TC50 (the source's name)
[4] = tested on: Human immunodeficiency virus 2; assay: Antiviral activity against HIV2 assessed as inhibition of viral replication treated at time points after viral entry into host cells; format: functional, organism-based
[5] = tested on: Simian immunodeficiency virus; assay: Antiviral activity against SIV MAC251 infected in human 174xCEM cells assessed as inhibition of virus-induced cytopathic effect; format: functional, organism-based
[6] = tested on: Human immunodeficiency virus 2; assay: Antiviral activity against HIV2 assessed as inhibition of viral single round replication at early time point; format: functional, organism-based
[7] = Therapeutic index, ratio of TC50 for human CEM-SS cells to EC50 for HIV1 RF infected in human CEM-SS cells; format: cell-based; details: read-out: TI
[8] = molecular target: Human immunodeficiency virus type 1 reverse transcriptase (Human immunodeficiency virus 1, UniProt Q72547, K103N); assay: Inhibition of HIV1 reverse transcriptase K103N mutant assessed as 32P-labeled GMP incorporation into nascent DNA strand
[9] = tested on: Human immunodeficiency virus 1; assay: Antiviral activity against HIV1 infected in human CEM-SS cells assessed as inhibition of viral replication and virus-induced cytopathic effect by dose-response curve analysis; format: functional; details: Human immunodeficiency virus 1, CEM-SS
[10] = tested on: Human immunodeficiency virus 2; assay: Antiviral activity against HIV2 ROD infected in human CEM-SS cells assessed as inhibition of virus-induced cytopathic effect by XTT assay; format: functional, organism-based, ISOLATE ROD; details: Human immunodeficiency virus 2, ISOLATE ROD, CEM-SS; read-out: EC50
[11] = Therapeutic index, ratio of TC50 human HeLa cells expressing CD4-LTR to EC50 for HIV1 entry inhibition in human HeLa cells expressing CD4-LTR; format: cell-based; details: read-out: TI
[12] = tested on: Human immunodeficiency virus 1; assay: Antiviral activity against HIV1 RF infected in human CEM-SS cells assessed as inhibition of virus-induced cytopathic effect by XTT assay; format: functional, organism-based; details: Human immunodeficiency virus 1, RF
[13] = Cytotoxicity against human CEM-SS cells by XTT assay; format: cell-based; details: read-out: TC50 (the source's name)
[14] = Therapeutic index, ratio of TC50 for human CEM-SS cells to EC50 for HIV2 ROD infected in human CEM-SS cells; format: cell-based; details: CEM-SS cells, read-out: TI
[15] = tested on: Human immunodeficiency virus 2; assay: Inhibition of HIV2 reverse transcriptase
HeLa = assay: Inhibition of HIV1 gp120/CD4 interaction assessed as inhibition of gp120 and gp41 coexpressing human HL2/3 cell fusion to CD4 expressing human HeLa cells treated for 2 hrs measured after 48 hrs by chemiluminescence assay; format: cell-based; details: Human immunodeficiency virus 1
[16] = tested on: Human immunodeficiency virus 1; assay: Antiviral activity against HIV1 infected in human HeLa cells expressing CD4-LTR assessed as inhibition of viral entry-related beta galactosidase expression treated for 2 hrs followed by drug wash out measured after 48 hrs by MAGI assay; format: functional, organism-based; details: Human immunodeficiency virus 1, HeLa
[17] = tested on: Human immunodeficiency virus 2; assay: Antiviral activity against HIV2 infected in human CEM-SS cells assessed as inhibition of viral replication and virus-induced cytopathic effect by dose-response curve analysis; format: functional; details: Human immunodeficiency virus 2, CEM-SS

Structure (SMILES) | Activity [1] | IC50 [2] [nM] | CC50 [3] [µM] | Activity [4] | Activity [5] | Activity [6] | selectivity ratio [7] | IC50 [8] [nM] | EC99 [9] [µM] | EC50 [10] [nM] | selectivity ratio [11] | EC50 [12] [nM] | CC50 [13] [µM] | selectivity ratio [14] | Activity [15] | inhibition (HeLa) | EC50 [16] [nM] | EC99 [17] [µM]
CCc1c(C(=O)c2cc(C)cc(C)c2)n(CCC2C=CCC2)c(=O)[nH]c1=O (stereo not given) | inactive | 75 | 92 | inactive | inactive | Active | 1680 | 1880 | 1 | 200 | 1310 | 54 | 92 | 421 | inactive | inactive | 70 | –
CCc1c(Sc2cc(C)cc(C)c2)n(CC2CCC2)c(=O)[nH]c1=O | inactive | 20 | 509 | inactive | – | Active | 80800 | > 290000 | 1 | 1700 | 4610 | 12.3 | 27 | 16.3 | inactive | – | 110 | 40
CCc1c(Sc2cc(C)cc(C)c2)n(Cc2ccccc2)c(=O)[nH]c1=O | inactive | 15600 | 1100 | inactive | inactive | Active | 598000 | 4050 | 1 | 400 | 5980 | 1.8 | 1100 | > 2490 | inactive | inactive | 180 | –
Cc1cc(C)cc(Oc2c(C(C)C)c(=O)[nH]c(=O)n2Cc2ccccc2)c1 | inactive | 114 | 38.2 | inactive | inactive | Active | 2720 | 975 | 1 | 100 | 4180 | 14 | 38.2 | 278 | inactive | inactive | 9 | –
CCc1c(C(=O)c2cc(C)cc(C)c2)n(CC2CC2)c(=O)[nH]c1=O | inactive | 178 | 1210 | inactive | – | Active | 125000 | 1780 | 0.01 | 500 | 197000 | 9.6 | 1200 | 2650 | inactive | – | 6 | 100
CCc1c(Oc2cc(C)cc(C)c2)n(CC2CC=CC2)c(=O)[nH]c1=O | inactive | 380 | 630 | inactive | – | Active | 170000 | 5100 | 0.2 | 19000 | 6850 | 7.1 | 1200 | > 3.2 | inactive | – | 90 | > 100
CCc1c(Oc2cc(C)cc(C)c2)n(CC2CCC2)c(=O)[nH]c1=O | inactive | 235 | 1200 | inactive | – | Active | 54200 | 289 | 1 | 7200 | 3960 | 22 | 1200 | > 172 | inactive | – | 300 | > 100
Cc1cc(C)cc(Oc2c(C(C)C)c(=O)[nH]c(=O)n2CC2CCC2)c1 | inactive | 120 | 16.6 | inactive | inactive | Active | 32200 | 213 | 1 | 1300 | – | 0.5 | 16.1 | 12.2 | inactive | inactive | 260 | –
CCc1c(Sc2cc(C)cc(C)c2)n(CC2CCCCC2)c(=O)[nH]c1=O | inactive | 152 | 71.7 | inactive | – | Active | 534 | > 268000 | 1 | 26900 | 1320 | 134 | 71.7 | 2.7 | inactive | – | 50 | –
Cc1cc(C)cc(C(=O)c2c(C(C)C)c(=O)[nH]c(=O)n2CCC2C=CCC2)c1 (stereo not given) | inactive | 23 | 18.3 | inactive | – | Active | 8940 | 5500 | 1 | 200 | 341 | 2.6 | 13.7 | 65 | inactive | – | 50 | –
CCc1c(C(=O)c2cc(C)cc(C)c2)n(CC2=CCCC2)c(=O)[nH]c1=O | inactive | 88 | 60.5 | inactive | inactive | Active | 23700 | 1930 | 1 | 1400 | 536 | 2.5 | 60.5 | 42.6 | inactive | inactive | 110 | –
Cc1cc(C)cc(Sc2c(C(C)C)c(=O)[nH]c(=O)n2CC2=CCCC2)c1 | inactive | 79 | 29.4 | inactive | – | Active | 5920 | > 270000 | 0.0003 | 500 | 3270 | 5 | 29.4 | 57.4 | inactive | – | 9 | 1
CCc1c(Oc2cc(C)cc(C)c2)n(Cc2ccccc2)c(=O)[nH]c1=O | inactive | 95 | 802 | inactive | – | Active | 165000 | 197 | 0.3 | 300 | 10200 | 4.9 | 802 | 2550 | inactive | – | 80 | 0.3
Cc1cc(C)cc(Oc2c(C(C)C)c(=O)[nH]c(=O)n2CC2CC2)c1 | inactive | 12 | 23.4 | inactive | – | Active | 15500 | 67 | – | 500 | 86 | 1.8 | 19.5 | 40 | inactive | – | 270 | 1
CCc1c(Sc2cc(C)cc(C)c2)n(CCC2C=CCC2)c(=O)[nH]c1=O (stereo not given) | inactive | 128 | 6.25 | inactive | – | Active | 641 | > 270000 | 1 | 600 | 192 | 10 | 5.7 | 10 | inactive | – | 30 | –
Cc1cc(C)cc(Sc2c(C(C)C)c(=O)[nH]c(=O)n2CC2CC=CC2)c1 | inactive | 241 | 23.2 | inactive | – | Active | 22 | > 270000 | 1 | 15300 | 307 | 1220 | 26.5 | > 1.3 | inactive | – | 80 | –
